We go through two molecules from patent publication US20160274087A1, “SCREENING ASSAY FOR AGENTS THAT INFLUENCE BETA CELL NUMBER AND/OR PHENOTYPE” (VRIJE UNIVERSITEIT BRUSSEL, priority 2013, published 2016).

For one data set, the system named is beta cells. Put plainly: Immunohistochemical analysis of Ki67 in pancreas after dexamethasone injection. The class given is in vivo, rat. Conditions: DEX 1 mg/Kg BW daily for 5 days; data not shown.
Data set [1] in a line: Metabolic effects of in vivo dexamethasone administration.
Data set [2] deals with selected gene targets in FACS-purified beta cells. Put plainly: Q-PCR on FACS-purified beta cells from dexamethasone-injected rats. Conditions: 5 single injections DEX 1 mg/kg BW daily.
Source text: Control rats were given vehicle (saline).
RNA was extracted using RNeasy columns (Qiagen), and quality was verified using an Agilent Bioanalyzer. Following removal of genomic DNA (TURBO DNA-free, Ambion) and reverse-transcription (High-Capacity cDNA Archive Kit, Applied Biosystems), gene targets were amplified on an ABI Prism 7700 using TaqMan Universal PCR Master Mix and TaqMan MGB probes (Applied Biosystems, assay IDs available on request). Expression levels of target genes were normalized to 4 housekeeping genes (β-actin, HPRT1, rplp2 and psmc5) (ΔCt) and expressed versus a control condition as calibrator (comparative ΔΔCt method).
In data set [3] the test system is rat beta cells. Put plainly: Beta cell viability / cell death (propidium iodide assay). In kind it is cell-based. Conditions: LOPAC screen at 1 μM; adult rat beta cells; day 6; control medium 97. The source says:
Numbers of living beta cells were obtained by subtracting the PI-positive cell numbers from the Ho-positive cell numbers, and correcting for the percent insulin-negative cells, as determined following insulin-immunofluorescence staining. They were expressed as percent of the numbers on day 1. […] To detect beta cells that underwent two successive cycles, cells were sequentially exposed to two different thymidine-analogs, first EdU from day 3 to 6, and then BrdU (100 μmol/l) from day 7 to 10, with a 24-hour label-free period in between. EdU-positive (EdU^+) nuclei were detected with the Click-iT Assay kit (Invitrogen), while BrdU-positive (BrdU^+) nuclei were identified with anti-BrdU antibody.
Absolute number of cells was determined by whole-well imaging using the BD-PathwayBioimager855 (BD-Biosciences). IPLab and AttoVision software packages (BD-Biosciences) were used for image background subtraction, segmentation and quantification.
Freshly purified beta cells were cultured in control medium for 24 h prior to the addition of the LOPAC test compounds (day 1). The culture medium was refreshed on day 3 and the cells were then cultured further with 5-ethynyl-2′-deoxyuridine (EdU; 10 μM) up to day 6. […] Thus, a compound is considered a hit only if it increases the percent EdU incorporation to above three standard deviation of the plate-averaged percent EdU incorporation.

The subject of data set [4] is rat beta cells. Put plainly: Beta cell DNA synthesis/proliferation by EdU (and BrdU) incorporation, incl. LOPAC screen. Particulars: LOPAC screen at 1 μM, adult rat beta cells, EdU day 3 to 6. The class given is cell-based. On the procedure:
On day 1, 9 and 15 of culture, total numbers of living beta cells per well were determined by semi-automatic cell count, after Hoechst 33342 (Ho) and propidium iodide (PI) staining. Numbers of living beta cells were obtained by subtracting the PI-positive cell numbers from the Ho-positive cell numbers, and correcting for the percent insulin-negative cells, as determined following insulin-immunofluorescence staining. They were expressed as percent of the numbers on day 1. Each condition was also evaluated for increases in the percentage of proliferating beta cells (incorporating the thymidine-analogue 5-ethynyl-2′-deoxyuridine, EdU; 100 μmol/l). To detect beta cells that underwent two successive cycles, cells were sequentially exposed to two different thymidine-analogs, first EdU from day 3 to 6, and then BrdU (100 μmol/l) from day 7 to 10, with a 24-hour label-free period in between. EdU-positive (EdU^+) nuclei were detected with the Click-iT Assay kit (Invitrogen), while BrdU-positive (BrdU^+) nuclei were identified with anti-BrdU antibody.
Freshly purified beta cells were cultured in control medium for 24 h prior to the addition of the LOPAC test compounds (day 1). The culture medium was refreshed on day 3 and the cells were then cultured further with 5-ethynyl-2′-deoxyuridine (EdU; 10 μM) up to day 6. Cell viability and percentage EdU incorporation were quantified after imaging and image analysis using the BD Pathway Bioimager, as described before (Assefa et al., 2014). To test the significance of compound effect on beta cell proliferation, average Z-score for each compound was calculated and a cut-off for potential positive hits was set at a Z-score of greater than three standard deviations. Thus, a compound is considered a hit only if it increases the percent EdU incorporation to above three standard deviation of the plate-averaged percent EdU incorporation.
Sorted beta cells were seeded in 384-well or 6-well plates coated with 804G matrix, and kept in culture for up to 15 days at 37° C. 5% CO2 using Ham F10 supplemented with 1 mM L-glutamine, 0.1 mg/ml streptomycin, 0.075 mg/ml penicillin, 50 μM of isobutyl-1-methylxanthine (IBMX) at 10 mM D-glucose with and without synthetic GCs (6 methyl-prednisolone (6MP), dexamethasone (DEX), GR-modulators (compound A (CPA), mifepristone (MIF), and NFκB inhibitors (JSH-23 en Bay11-7085). Total cell number and beta cell viability was evaluated after incubation with Hoechst 33342 and propidium iodide. All chemicals were from Sigma Life Sciences or Merck. Quantification of cell numbers and analysis of beta-cell viability was done using the Pathway Bioimager (BD Biosciences) and using IPlab and Attovision software for background subtraction as described prior (Assefa et al., 2014). Replicating beta cells were quantified after 24 or 72 hrs incubation with 5-ethynyl-2′-deoxyuridine (EdU, a thymidine analog) using the ClickIT EDU Alexa Fluor assay (Invitrogen). EdU-positive cells were expressed as percentage of total cell number.

Data set [5] concerns the target T1, glucocorticoid receptor (GR) (Homo sapiens, UniProt P04150).
T1 sequence (P04150 1-777): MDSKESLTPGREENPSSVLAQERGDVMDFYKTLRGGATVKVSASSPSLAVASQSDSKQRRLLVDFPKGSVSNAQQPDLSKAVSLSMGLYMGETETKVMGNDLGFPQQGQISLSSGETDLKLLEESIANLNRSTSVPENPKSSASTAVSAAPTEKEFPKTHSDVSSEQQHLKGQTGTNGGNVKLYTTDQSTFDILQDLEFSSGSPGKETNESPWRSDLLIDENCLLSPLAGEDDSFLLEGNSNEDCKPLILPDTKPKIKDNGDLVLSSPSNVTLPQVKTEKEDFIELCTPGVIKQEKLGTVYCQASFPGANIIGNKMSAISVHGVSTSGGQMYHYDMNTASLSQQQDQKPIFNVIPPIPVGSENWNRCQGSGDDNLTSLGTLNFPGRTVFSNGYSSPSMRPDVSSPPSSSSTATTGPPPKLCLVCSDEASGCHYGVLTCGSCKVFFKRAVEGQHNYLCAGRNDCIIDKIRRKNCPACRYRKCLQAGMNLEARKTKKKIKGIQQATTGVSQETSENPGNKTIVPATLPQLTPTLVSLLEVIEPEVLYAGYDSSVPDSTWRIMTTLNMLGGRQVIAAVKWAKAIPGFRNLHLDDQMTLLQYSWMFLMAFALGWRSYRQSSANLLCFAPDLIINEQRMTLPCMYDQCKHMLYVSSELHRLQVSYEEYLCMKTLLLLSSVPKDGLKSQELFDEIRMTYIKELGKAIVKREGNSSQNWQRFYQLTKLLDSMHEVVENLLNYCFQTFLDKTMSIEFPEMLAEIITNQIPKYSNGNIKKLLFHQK
Conditions: cited from earlier work.

The structures appear in SMILES notation. Marks after values point to notes of the source that are not given here.

As for `C[C@@H]1C[C@H]2[C@@H]3CCC4=CC(=O)C=C[C@]4(C)[C@@]3(F)[C@@H](O)C[C@]2(C)[C@@]1(O)C(=O)CO` [DEX, dexamethasone], the “increase of the percentage beta cells positive for Ki67” value with beta cells turned out to be 3 fold. In data set [1] (DEX 1 mg/Kg BW daily for 5 consecutive days), the “loss of body weight” value came to 20%. In data set [1] (DEX 1 mg/Kg BW daily for 5 days, MOCK 48 ± 7), the insulin content came to 22 ± 3 ng/K beta cells. Moreover, in data set [1] (DEX 1 mg/Kg BW daily for 5 days, MOCK 81 ± 3), the “IPGT 90 min” value was 278 ± 44 mg/dL. Besides, the “IPGT 120 min” value in data set [1] (DEX 1 mg/Kg BW daily for 5 days, MOCK 82 ± 2) is 227 ± 62 mg/dL. Also, the “IPGT 60 min” value in data set [1] (DEX 1 mg/Kg BW daily for 5 days, MOCK 83 ± 5) amounted to 375 ± 54 mg/dL. This molecule also showed a Fasting glycemia in data set [1] (DEX 1 mg/Kg BW daily for 5 days, MOCK 85 ± 3) of 169 ± 77 mg/dL. Further, in data set [1] (DEX 1 mg/Kg BW daily for 5 days, MOCK 100), the Islet insulin content was 37 ** ng/islet. Moreover, in data set [1] (DEX 1 mg/Kg BW daily for 5 days, MOCK 180 ± 14), the “IPGT 30 min” value stood at 456 ± 41 mg/dL. Besides, in data set [1] (DEX 1 mg/Kg BW daily for 5 days, MOCK 360 ± 43), the “IPGT 15 min” value worked out at 497 ± 16 mg/dL. Besides, the Serum insulin in data set [1] (DEX 1 mg/Kg BW daily for 5 days, MOCK 4927 ± 724) was 8447 ± 472 pg/mL. Besides, the “Body weight Day 6” value in data set [1] (DEX 1 mg/Kg BW daily i.p. for 5 days, MOCK 382 ± 13) is 304 ± 11 g. Moreover, the “Body weight Day 0” value in data set [1] (DEX group before treatment, MOCK 356 ± 8) worked out at 363 ± 13 g. Moreover, in data set [2], the “Cyclin B1 mRNA level (ΔΔCt values relative to control, adult male)” value is 6.5 ± 2.5 ^3; the “Cyclin B2 mRNA level (ΔΔCt values relative to control, adult male)” value is recorded as 10.8 ± 5.1 ^3; the “CyclinD1 mRNA level (ΔΔCt values relative to control, adult male)” value is given as 0.9 ± 0.4 ^; the “DLK1 mRNA level (ΔΔCt values relative to control, adult male)” value is reported as 33.0 ± 19.1 ^3. For the same molecule, in data set [2], the “FKBP5 mRNA level (ΔΔCt values relative to control, adult male)” value is 2.4 ± 0.2 ^; the “ICAM1 mRNA level (ΔΔCt values relative to control, adult male)” value is given as 0.1 ± 0.1 ^3; the “MafA mRNA level (ΔΔCt values relative to control, adult male)” value is on record as 0.3 ± 0.1 ^; the “MafB mRNA level (ΔΔCt values relative to control, adult male)” value is 0.6 ± 0.2 ^. In data set [2], the “NPY mRNA level (ΔΔCt values relative to control, adult male)” value is 3.3 ± 0.5 ^3; the “NR3C1 mRNA level (ΔΔCt values relative to control, adult male)” value is listed as 0.5 ± 0.1 ^2; the “Pdx1 mRNA level (ΔΔCt values relative to control, adult male)” value is recorded as 0.4 ± 0.2 ^.
In the data set on rat beta cells [3], `C[C@]12C=CC(=O)C=C1CC[C@H]1[C@@H]3C[C@@H](O)[C@](O)(C(=O)CO)[C@@]3(C)C[C@H](O)[C@@]12F` [Triamcinolone] registered a Percent viable cells of 99%. Also, in the data set on rat beta cells [4] (control medium 5.6), the “Percent EdU+ cells” value is reported as 31.1%. The same molecule returned a Z-Score in the data set with rat beta cells [4] (hit cut-off three standard deviations) of 5.9. Besides, the “Relative Potencies GR” value in data set [5] was 5.
